Two compounds from ChEMBL document CHEMBL1629680, “Role for Fks1 in the intrinsic echinocandin resistance of Fusarium solani as evidenced by hybrid expression in Saccharomyces cerevisiae” (2009) can be followed below.

Values after ≈ are worked out from the molar mass of the structure shown. *1 amine or outer side, *2 acyl side, *3 side chain or, on linkers, in order; H or OH if unused. Where a SMILES comes first, the peptide text is derived from it. Bridges are numbered along the chain shown (N, C = ends). [ ]: non-standard residue; d: D form. The star is where a group is joined. hTyr(3S-OH,4S-OH,3'-OSO3H) = N[C@H](C(=O)O)[C@H](O)[C@@H](O)c1ccc(O)c(OS(=O)(=O)O)c1; Orn(4R-OH,5R-OH) = O=C([C@H](C[C@@H](O)[C@@H](O)N[*:3])N[*:1])[*:2]; Pro(3S-OH,4S-Me) = C[C@H]1CN[C@H](C(=O)O)[C@H]1O; X1 = CCCCCOc1ccc(-c2cc(-c3ccc(C(=O)*)cc3)no2)cc1; Gln(3R-OH) = NC(=O)C[C@@H](O)[C@H](N)C(=O)O; Hyp = O=C(O)[C@@H]1C[C@@H](O)CN1

Format in all cases: functional
For assay [1], the system named is Saccharomyces cerevisiae. The experiment in a line: Antimicrobial activity against Saccharomyces cerevisiae BY4742 containing Fusarium solani fks1617-649 hybrid after 24 hrs by broth microdilution assay. As to conditions: BY4742, 24 h.
The test system of assay [2] is Saccharomyces cerevisiae. In words: Antimicrobial activity against Saccharomyces cerevisiae BY4742 containing Fusarium solani fks1-FS453-649 with F639 mutant after 24 hrs by broth microdilution assay. As to conditions: BY4742, 24 h.
Assay [3] relates to Saccharomyces cerevisiae. The experiment in a line: Antimicrobial activity against Saccharomyces cerevisiae BY4742 fks1-F639F wild type after 24 hrs by broth microdilution assay. The conditions noted are these: BY4742, 24 h.
Assay [4] deals with Saccharomyces cerevisiae. In words: Antimicrobial activity against Saccharomyces cerevisiae BY4742 containing Fusarium solani fks1-FS453-649 hybrid after 24 hrs by broth microdilution assay. As to conditions: BY4742, 24 h.
The subject of assay [5] is Saccharomyces cerevisiae. In words: Antimicrobial activity against Saccharomyces cerevisiae BY4742 containing Aspergillus fumigatus fks1delta453-649 hybrid after 24 hrs by broth microdilution assay. As to conditions: BY4742, 24 h.
For assay [6], the system named is Saccharomyces cerevisiae. In words: Antimicrobial activity against Saccharomyces cerevisiae BY4742 fks1delta617-649::URA3 deletant after 24 hrs by broth microdilution assay. As to conditions: BY4742, 24 h.
The test system of assay [7] is Saccharomyces cerevisiae. In words: Antimicrobial activity against Saccharomyces cerevisiae BY4742 containing Aspergillus fumigatus fks1617-649 hybrid after 24 hrs by broth microdilution assay. The conditions noted are these: BY4742, 24 h.
Assay [8] has as its system Saccharomyces cerevisiae. The experiment in a line: Antimicrobial activity against Saccharomyces cerevisiae BY4742 fks1-F639Y mutant after 24 hrs by broth microdilution assay. The conditions noted are these: BY4742, 24 h.
Assay [9] concerns Saccharomyces cerevisiae. In words: Antimicrobial activity against Saccharomyces cerevisiae BY4742 containing Candida glabrata fks1-CgS453-649 hybrid after 24 hrs by broth microdilution assay. The conditions noted are these: BY4742, 24 h.
Assay [10] concerns Nakaseomyces glabratus. In words: Antimicrobial activity against Candida glabrata containing FSK2 after 24 hrs by broth microdilution assay.
For assay [11], the system named is Nakaseomyces glabratus. In words: Antimicrobial activity against Candida glabrata containing fsk2-L588P/F639V mutant after 24 hrs by broth microdilution assay.
Assay [12] concerns Saccharomyces cerevisiae. In words: Antimicrobial activity against Saccharomyces cerevisiae BY4742 containing Fusarium solani fks1617-649 with F639 mutant after 24 hrs by broth microdilution assay. The conditions noted are these: BY4742, 24 h.
The subject of assay [13] is Saccharomyces cerevisiae. The experiment in a line: Antimicrobial activity against Saccharomyces cerevisiae BY4742 containing Candida glabrata fks1-CgR453-649 hybrid after 24 hrs by broth microdilution assay. The conditions noted are these: BY4742, 24 h.
For assay [14], the system named is Saccharomyces cerevisiae. In words: Antimicrobial activity against Saccharomyces cerevisiae BY4742 transfected with Scedosporium prolificans FSK1 gene sequence after 24 hrs by broth microdilution assay. As to conditions: BY4742, 24 h.

For the compound `CCCCCOc1ccc(-c2cc(-c3ccc(C(=O)N[C@H]4C[C@@H](O)[C@@H](O)NC(=O)[C@@H]5[C@@H](O)[C@@H](C)CN5C(=O)[C@H]([C@H](O)CC(N)=O)NC(=O)[C@H]([C@H](O)[C@@H](O)c5ccc(O)c(OS(=O)(=O)O)c5)NC(=O)[C@@H]5C[C@@H](O)CN5C(=O)[C@H]([C@@H](C)O)NC4=O)cc3)no2)cc1` [MICAFUNGIN] (X1-[Orn(4R-OH,5R-OH)]T[Hyp][hTyr(3S-OH,4S-OH,3'-OSO3H)][Gln(3R-OH)][Pro(3S-OH,4S-Me)]; lactam 1-C), the MIC against Saccharomyces cerevisiae [1] was determined as 0.25 µg/mL (≈ 0.197 µM); against Saccharomyces cerevisiae [2], 0.008 µg/mL (≈ 0.0063 µM); with Saccharomyces cerevisiae [3] it was 0.062 µg/mL (≈ 0.0488 µM); with Saccharomyces cerevisiae [4], 0.031 µg/mL (≈ 0.0244 µM); with Saccharomyces cerevisiae [5], 0.062 µg/mL (≈ 0.0488 µM); against Saccharomyces cerevisiae [6] it was 0.062 µg/mL (≈ 0.0488 µM). The MIC was 0.031 µg/mL (≈ 0.0244 µM) against Saccharomyces cerevisiae [7]; 0.5 µg/mL (≈ 0.394 µM) in the assay on Saccharomyces cerevisiae [8]; 0.016 µg/mL (≈ 0.0126 µM) in the assay with Saccharomyces cerevisiae [9]; 0.031 µg/mL (≈ 0.0244 µM) in the assay with Nakaseomyces glabratus [10]; 0.062 µg/mL (≈ 0.0488 µM) in the assay with Nakaseomyces glabratus [11]; 0.031 µg/mL (≈ 0.0244 µM) in the assay with Saccharomyces cerevisiae [12]. Besides, the MIC in the assay with Saccharomyces cerevisiae [13] and against Saccharomyces cerevisiae [14] was 0.062 µg/mL (≈ 0.0488 µM) throughout.
For the compound `CC[C@H](C)C[C@H](C)CCCCCCCCC(=O)N[C@H]1C[C@@H](O)[C@@H](NCCN)NC(=O)[C@@H]2[C@@H](O)CCN2C(=O)[C@H]([C@H](O)CCN)NC(=O)[C@H]([C@H](O)[C@@H](O)c2ccc(O)cc2)NC(=O)[C@@H]2C[C@@H](O)CN2C(=O)[C@H]([C@@H](C)O)NC1=O` [CASPOFUNGIN], the MIC is 0.25 µg/mL (≈ 0.229 µM) in the assay on Saccharomyces cerevisiae [1]; 0.001 µg/mL (≈ 0.000915 µM) with Saccharomyces cerevisiae [2]; 0.031 µg/mL (≈ 0.0284 µM) in the assay with Saccharomyces cerevisiae [3]; 0.008 µg/mL (≈ 0.00732 µM) in the assay with Saccharomyces cerevisiae [4]; 0.002 µg/mL (≈ 0.00183 µM) with Saccharomyces cerevisiae [5]; 0.002 µg/mL (≈ 0.00183 µM) with Saccharomyces cerevisiae [6]. Also, the MIC is 0.008 µg/mL (≈ 0.00732 µM) against Saccharomyces cerevisiae [7]; 0.5 µg/mL (≈ 0.457 µM) against Saccharomyces cerevisiae [8]; 0.031 µg/mL (≈ 0.0284 µM) with Saccharomyces cerevisiae [9]; 0.062 µg/mL (≈ 0.0567 µM) with Nakaseomyces glabratus [10]; 0.5 µg/mL (≈ 0.457 µM) in the assay on Nakaseomyces glabratus [11]; 0.008 µg/mL (≈ 0.00732 µM) against Saccharomyces cerevisiae [12]. The MIC turned out to be 0.25 µg/mL (≈ 0.229 µM) in the assay with Saccharomyces cerevisiae [13] and 0.031 µg/mL (≈ 0.0284 µM) in the assay with Saccharomyces cerevisiae [14].
